From article PMC11129196 (Journal of Medicinal Chemistry, 2024)
≈ marks a conversion by molar mass, not a printed value. Entries after “also recorded” stand apart in the source; their conditions may differ.

Key:
PDE-3 = conditions: cited from earlier work
reconstituted sarcomeres = assay: sarcomere component swap experiment; format: biochemical, bovine, rabbit; conditions: four myosin S1/thin filament combinations; 1 and 2 at 40 μM
fast skeletal myofibrils = fast skeletal myofibrils (Oryctolagus cuniculus, UniProt P02586+P02643); assay: fast skeletal myofibril ATPase assay; format: biochemical, rabbit
[1] = test system: adult rat ventricular myocytes; assay: rat cardiomyocyte contractility assay; format: cell-based; conditions: 10 μM, 1 Hz, 37 °C, vs untreated cells
[2] = test system: adult rat ventricular myocytes; assay: cardiomyocyte calcium transient experiments; format: cell-based; conditions: 10 μM, Fura dye
smooth muscle myosin = smooth muscle myosin (Gallus gallus, UniProt P10587); assay: smooth muscle myosin ATPase assay; format: biochemical, chicken
slow skeletal myofibrils = slow skeletal myofibrils (Bos taurus, UniProt P63315); assay: slow skeletal myofibril ATPase assay; format: biochemical, bovine
[3] = solubility in the PDE-3 buffer solution; format: physicochemical
phosphodiesterase 3a = phosphodiesterase 3a (Homo sapiens, UniProt Q14432); assay: PDE-3 inhibition assay; format: biochemical
solubility assessment = format: physicochemical; conditions: monopotassium phosphate JP2 buffer, pH 6.8
[4] = rat pharmacokinetic assessment, IV; format: in vivo; conditions: dosed IV in rats

Sequence of smooth muscle myosin (P10587 whole entry): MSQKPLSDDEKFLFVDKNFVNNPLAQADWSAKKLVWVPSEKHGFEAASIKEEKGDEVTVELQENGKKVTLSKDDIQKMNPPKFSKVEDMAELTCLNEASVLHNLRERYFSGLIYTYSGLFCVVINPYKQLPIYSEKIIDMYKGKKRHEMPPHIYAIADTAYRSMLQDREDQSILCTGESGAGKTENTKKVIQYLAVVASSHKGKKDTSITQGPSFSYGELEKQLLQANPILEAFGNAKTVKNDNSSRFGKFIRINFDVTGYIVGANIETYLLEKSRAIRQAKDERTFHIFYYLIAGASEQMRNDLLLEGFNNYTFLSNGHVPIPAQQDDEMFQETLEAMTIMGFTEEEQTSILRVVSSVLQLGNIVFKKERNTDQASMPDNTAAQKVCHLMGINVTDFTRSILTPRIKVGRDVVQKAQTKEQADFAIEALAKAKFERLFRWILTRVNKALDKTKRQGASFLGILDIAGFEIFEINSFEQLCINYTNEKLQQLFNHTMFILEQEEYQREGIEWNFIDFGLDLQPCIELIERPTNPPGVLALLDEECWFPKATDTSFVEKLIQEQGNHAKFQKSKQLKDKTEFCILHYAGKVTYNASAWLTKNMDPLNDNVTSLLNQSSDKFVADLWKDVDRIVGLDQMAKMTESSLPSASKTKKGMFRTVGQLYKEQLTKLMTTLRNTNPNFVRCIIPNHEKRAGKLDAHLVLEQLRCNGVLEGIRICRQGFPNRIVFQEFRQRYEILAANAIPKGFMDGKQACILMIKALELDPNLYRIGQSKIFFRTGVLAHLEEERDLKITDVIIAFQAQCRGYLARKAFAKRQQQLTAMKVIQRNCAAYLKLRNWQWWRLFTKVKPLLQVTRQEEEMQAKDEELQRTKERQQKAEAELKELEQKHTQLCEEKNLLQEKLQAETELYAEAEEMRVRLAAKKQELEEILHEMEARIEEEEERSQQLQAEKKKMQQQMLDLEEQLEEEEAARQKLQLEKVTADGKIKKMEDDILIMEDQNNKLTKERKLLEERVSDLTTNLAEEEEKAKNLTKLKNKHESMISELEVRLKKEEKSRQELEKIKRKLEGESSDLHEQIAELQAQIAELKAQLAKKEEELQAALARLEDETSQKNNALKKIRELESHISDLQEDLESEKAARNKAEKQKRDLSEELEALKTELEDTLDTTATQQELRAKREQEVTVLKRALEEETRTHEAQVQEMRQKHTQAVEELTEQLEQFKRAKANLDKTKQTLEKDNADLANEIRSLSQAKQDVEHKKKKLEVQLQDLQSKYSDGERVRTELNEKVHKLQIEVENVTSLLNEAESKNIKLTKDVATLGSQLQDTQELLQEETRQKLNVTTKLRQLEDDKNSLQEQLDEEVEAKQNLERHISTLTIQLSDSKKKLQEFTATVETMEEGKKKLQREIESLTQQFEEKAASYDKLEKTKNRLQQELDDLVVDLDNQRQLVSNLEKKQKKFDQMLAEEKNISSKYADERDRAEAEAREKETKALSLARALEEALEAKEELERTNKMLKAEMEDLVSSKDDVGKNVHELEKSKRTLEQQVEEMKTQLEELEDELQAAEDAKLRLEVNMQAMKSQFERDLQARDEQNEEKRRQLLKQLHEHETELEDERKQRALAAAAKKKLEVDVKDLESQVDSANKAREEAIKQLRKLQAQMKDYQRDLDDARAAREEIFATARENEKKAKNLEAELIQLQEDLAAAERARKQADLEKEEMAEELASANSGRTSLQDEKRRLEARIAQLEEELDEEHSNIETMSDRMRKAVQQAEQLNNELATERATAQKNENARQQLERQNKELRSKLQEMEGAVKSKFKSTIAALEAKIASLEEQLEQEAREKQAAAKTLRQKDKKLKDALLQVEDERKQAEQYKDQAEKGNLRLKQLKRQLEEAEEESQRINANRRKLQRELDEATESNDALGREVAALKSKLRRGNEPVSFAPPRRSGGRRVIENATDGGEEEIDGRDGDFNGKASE
Sequence of smooth muscle myosin (P02607 whole entry partner): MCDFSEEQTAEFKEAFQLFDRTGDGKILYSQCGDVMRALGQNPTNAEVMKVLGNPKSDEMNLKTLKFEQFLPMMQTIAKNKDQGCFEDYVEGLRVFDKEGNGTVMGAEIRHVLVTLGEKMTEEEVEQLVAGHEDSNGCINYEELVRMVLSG
Sequence of smooth muscle myosin (P02612 whole entry partner): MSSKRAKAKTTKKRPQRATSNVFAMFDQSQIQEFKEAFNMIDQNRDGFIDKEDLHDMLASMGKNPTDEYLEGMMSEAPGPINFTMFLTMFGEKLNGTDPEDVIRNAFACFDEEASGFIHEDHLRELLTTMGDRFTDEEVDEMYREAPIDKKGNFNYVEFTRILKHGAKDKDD
Sequence of fast skeletal myofibrils (P02586 whole entry): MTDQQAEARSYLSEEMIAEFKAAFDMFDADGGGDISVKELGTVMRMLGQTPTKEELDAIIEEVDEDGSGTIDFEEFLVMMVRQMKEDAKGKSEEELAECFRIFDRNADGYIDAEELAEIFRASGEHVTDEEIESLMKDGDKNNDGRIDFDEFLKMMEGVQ
Sequence of fast skeletal myofibrils (P02643 whole entry): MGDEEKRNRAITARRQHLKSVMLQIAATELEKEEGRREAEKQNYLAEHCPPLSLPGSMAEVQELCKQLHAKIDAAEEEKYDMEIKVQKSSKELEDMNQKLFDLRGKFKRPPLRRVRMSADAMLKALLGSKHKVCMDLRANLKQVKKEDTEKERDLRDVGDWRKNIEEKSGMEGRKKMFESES
Sequence of fast skeletal myofibrils (P02641 whole entry partner): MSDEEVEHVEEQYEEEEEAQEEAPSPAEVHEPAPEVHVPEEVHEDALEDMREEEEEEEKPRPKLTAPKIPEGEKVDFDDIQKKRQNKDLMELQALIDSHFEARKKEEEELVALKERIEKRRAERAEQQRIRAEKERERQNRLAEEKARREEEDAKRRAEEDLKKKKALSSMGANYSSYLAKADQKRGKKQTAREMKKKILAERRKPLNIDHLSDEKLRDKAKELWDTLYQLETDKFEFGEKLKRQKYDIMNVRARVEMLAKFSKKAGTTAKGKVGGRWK
Sequence of phosphodiesterase 3a (Q14432 whole entry): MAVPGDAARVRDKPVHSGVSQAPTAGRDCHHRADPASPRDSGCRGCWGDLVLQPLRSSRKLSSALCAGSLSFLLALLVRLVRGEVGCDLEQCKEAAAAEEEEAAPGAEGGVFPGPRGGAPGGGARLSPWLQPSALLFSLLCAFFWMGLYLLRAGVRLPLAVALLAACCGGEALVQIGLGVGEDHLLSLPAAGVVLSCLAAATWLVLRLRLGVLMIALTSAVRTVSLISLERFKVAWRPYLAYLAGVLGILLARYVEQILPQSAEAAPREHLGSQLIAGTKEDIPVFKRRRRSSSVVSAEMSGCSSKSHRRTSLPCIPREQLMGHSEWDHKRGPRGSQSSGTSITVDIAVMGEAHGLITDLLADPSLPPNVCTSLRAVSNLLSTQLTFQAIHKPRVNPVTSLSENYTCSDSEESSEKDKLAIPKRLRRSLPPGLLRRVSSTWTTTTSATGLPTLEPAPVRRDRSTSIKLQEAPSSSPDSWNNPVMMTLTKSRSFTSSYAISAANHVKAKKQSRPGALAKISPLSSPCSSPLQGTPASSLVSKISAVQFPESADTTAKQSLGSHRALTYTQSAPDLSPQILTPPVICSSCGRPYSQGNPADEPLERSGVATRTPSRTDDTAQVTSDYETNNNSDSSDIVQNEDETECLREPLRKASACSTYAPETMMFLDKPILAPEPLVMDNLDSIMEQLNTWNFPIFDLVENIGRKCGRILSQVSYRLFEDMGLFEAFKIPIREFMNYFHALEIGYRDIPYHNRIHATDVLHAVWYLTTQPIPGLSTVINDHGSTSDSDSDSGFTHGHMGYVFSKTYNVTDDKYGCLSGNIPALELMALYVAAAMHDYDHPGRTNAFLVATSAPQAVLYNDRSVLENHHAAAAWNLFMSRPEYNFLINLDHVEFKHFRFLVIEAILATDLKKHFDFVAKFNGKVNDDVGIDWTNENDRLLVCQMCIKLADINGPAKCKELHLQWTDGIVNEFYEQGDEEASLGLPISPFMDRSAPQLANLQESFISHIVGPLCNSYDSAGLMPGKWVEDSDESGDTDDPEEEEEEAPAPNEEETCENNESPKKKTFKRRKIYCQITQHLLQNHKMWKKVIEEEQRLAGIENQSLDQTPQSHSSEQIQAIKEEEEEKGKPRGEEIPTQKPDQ

**Q.** Which “PDE-3 inhibition in words” value (PDE-3) does the source give for `C[C@@H]1CC(=O)NN=C1c1ccc(NN=C(C#N)C#N)cc1` [Levosimendan] here?
**A.** Its value is “single digit nanomolar PDE-3 inhibition”.

**Q.** For `O=c1[nH]c2ccc(S(=O)(=O)Nc3ccc(-c4ccccc4)cc3)cc2[nH]1` [compound 1], which “activation of reconstituted sarcomeres in words” value (reconstituted sarcomeres) is on record?
**A.** Its value is “Only the reconstituted sarcomeres that contain the cardiac thin filament showed activation”.

**Q.** For `O=c1[nH]c(=O)c2cc(S(=O)(=O)Nc3ccc(N4CCCCCC4)cc3)ccc2[nH]1` [compound 2], which “fast skeletal myofibril activity in words” value (fast skeletal myofibrils) is on record?
**A.** The value was “inactive; also recorded: did not activate”.

**Q.** And the “myocyte fractional shortening in words” value [1]?
**A.** Its value is “significantly increased myocyte fractional shortening”.

**Q.** What about the “activation of reconstituted sarcomeres in words” value (reconstituted sarcomeres) of the same compound?
**A.** Its value is “Only the reconstituted sarcomeres that contain the cardiac thin filament showed activation”.

**Q.** And the “intracellular calcium concentrations in words” value [2]?
**A.** The value was “without changing intracellular calcium concentrations”.

**Q.** What about the “smooth muscle myosin activity in words” value (smooth muscle myosin) of the same compound?
**A.** Its value is “inactive; also recorded: did not activate”.

**Q.** For `O=c1[nH]c(=O)c2cc(S(=O)(=O)Nc3ccc(-c4ccccc4)cc3)ccc2[nH]1` [compound 3], which “slow skeletal myofibril AC40” value (slow skeletal myofibrils) is on record?
**A.** The value was <0.1 µM.

**Q.** And the “fast skeletal myofibril activity in words” value (fast skeletal myofibrils)?
**A.** Its value is “did not activate”.

**Q.** What about the “smooth muscle myosin activity in words” value (smooth muscle myosin) of the same compound?
**A.** The value was “did not activate”.

**Q.** For `Cn1c(=O)[nH]c(=O)c2cc(S(=O)(=O)Nc3ccc(-c4ccccc4)cc3)ccc21` [compound 5], which solubility [3] is on record?
**A.** Its solubility is 1.2 µM (≈ 0.489 µg/mL).

**Q.** With `C[C@@H]1C[C@@H](C)CN(c2ccc(NS(=O)(=O)c3ccc4c(c3)c(=O)[nH]c(=O)n4C)cn2)C1` [compound 13, N-(6-((3R,5R)-3,5-Dimethylpiperidin-1-yl)pyridin-3-yl)-1-methyl-2,4-dioxo-1,2,3,4-tetrahydroquinazoline-6-sulfonamide] as the compound, how does the IC50 (phosphodiesterase 3a) read?
**A.** Its IC50 is 7 µM.

**Q.** Which solubility at 12 h (solubility assessment) does the source give for `CNc1cc2nc(C)[nH]c(=O)c2cc1S(=O)(=O)Nc1ccc(N2C[C@H](C)C[C@@H](C)C2)nc1` [compound 17, N-(6-((3R,5R)-3,5-Dimethylpiperidin-1-yl)pyridin-3-yl)-2-methyl-7-(methylamino)-4-oxo-3,4-dihydroquinazoline-6-sulfonamide] here?
**A.** Its solubility at 12 h is 6.7 µM (≈ 3.06 µg/mL).

**Q.** What about the “clearance relative to hepatic blood flow” value [4] of the same compound?
**A.** Its value is < 25 % of hepatic blood flow (Qh).
